Assay results reported in paper PMC7932521, “2-aminobenzimidazoles for leishmaniasis: From initial hit discovery to in vivo profiling” (PLoS Neglected Tropical Diseases, 2021).
pEC50, pIC50: −log10 of the molar value. ≈ marks a conversion by molar mass, not a printed value. Like-named read-outs stand apart in the source and are kept apart here.

Legend:
[1] = test system: Leishmania infantum MHOM/MA(BE)/67/ITMAP263 amastigotes; test: L. infantum intracellular amastigote assay in PMM; assay type: cell-based; details: for SI: selectivity index (CC50 / IC50): CC50 / L. infantum IC50; for pIC50: read-out: L. infantum IC50
Summary of the method: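 Mouse peritoneal macrophages infected with hamster spleen-derived amastigotes (2 h, 37°C), then exposed to 4-fold dilutions from 64 μM (DMSO <1%) for 5 days at 37°C, 5% CO2. Burden scored microscopically after Giemsa staining as percent reduction vs untreated wells; IC50 as geometric mean of ≥2 experiments.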

[2] = molecular target: T1, H1 (Homo sapiens, UniProt P35367); test: Bioprofiling 6pt Ag H1 CHO; assay type: cell-based; details: agonist readout
T1 construct: expressed in transfected cells; host or cells: CHO
Method: (§1) The compounds were evaluated across a panel of 20 liability targets (37 functional assays) which included functional cell-based GPCRs and ion channels in both agonist and antagonist readout, measuring calcium flux and biochemical functional assays for nuclear hormone receptors and phosphodiesterases using TR-FRET format, in a 6 point 1:3 dilution dose series (maximum final concentration of 10 μM).

[3] = molecular target: T2, 5-HT2A (Homo sapiens, UniProt P28223); test: Bioprofiling 6pt Ag 5-HT2A CHO; assay type: cell-based; details: agonist readout
T2 construct: expressed in transfected cells; host or cells: CHO
Method: as §1

[4] = molecular target: T3, A1 (Homo sapiens, UniProt P30542); test: Bioprofiling 6pt Antag A1 CHO; assay type: cell-based; details: antagonist readout vs N6-Cyclopentyladenosine (CPA)
T3 construct: expressed in transfected cells; host or cells: CHO
T3 sequence (P30542 1-326): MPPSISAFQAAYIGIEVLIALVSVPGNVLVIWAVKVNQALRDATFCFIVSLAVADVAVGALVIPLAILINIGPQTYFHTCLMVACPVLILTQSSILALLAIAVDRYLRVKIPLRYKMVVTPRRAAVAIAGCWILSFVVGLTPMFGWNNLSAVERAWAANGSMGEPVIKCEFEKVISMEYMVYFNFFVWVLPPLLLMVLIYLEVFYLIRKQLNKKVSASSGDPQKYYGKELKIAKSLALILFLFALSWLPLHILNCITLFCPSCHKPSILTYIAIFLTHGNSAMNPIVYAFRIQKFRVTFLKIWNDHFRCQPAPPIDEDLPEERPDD
Method: as §1

[5] = molecular target: T4, Alpha2A (Homo sapiens, UniProt P08913); test: Bioprofiling 6pt Ag Alpha2A CHO; assay type: cell-based; details: agonist readout
T4 construct: expressed in transfected cells; host or cells: CHO
T4 sequence (P08913 1-465): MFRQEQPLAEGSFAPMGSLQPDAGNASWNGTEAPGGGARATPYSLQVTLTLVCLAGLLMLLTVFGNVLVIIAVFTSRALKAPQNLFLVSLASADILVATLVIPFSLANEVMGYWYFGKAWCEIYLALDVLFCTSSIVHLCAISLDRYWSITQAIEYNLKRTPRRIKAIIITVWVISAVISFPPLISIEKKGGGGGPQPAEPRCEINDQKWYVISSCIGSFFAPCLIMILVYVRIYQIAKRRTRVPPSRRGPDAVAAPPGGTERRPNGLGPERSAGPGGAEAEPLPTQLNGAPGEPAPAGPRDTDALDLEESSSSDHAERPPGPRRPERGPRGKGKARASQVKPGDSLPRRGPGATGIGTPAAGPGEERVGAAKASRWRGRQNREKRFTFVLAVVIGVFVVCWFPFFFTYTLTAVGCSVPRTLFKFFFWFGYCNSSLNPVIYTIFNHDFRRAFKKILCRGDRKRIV
Method: as §1

[6] = molecular target: T5, 5-HT2B (Homo sapiens, UniProt P41595); test: Bioprofiling 6pt Antag 5-HT2B CHO; assay type: cell-based; details: antagonist readout vs Serotonin (5-HT)
T5 construct: expressed in transfected cells; host or cells: CHO
Method: as §1

[7] = molecular target: T3, A1; test: Bioprofiling 6pt Ag A1 CHO; assay type: cell-based; details: agonist readout
Method: as §1

[8] = molecular target: T4, Alpha2A; test: Bioprofiling 6pt Antag Alpha2A CHO; assay type: cell-based; details: antagonist readout vs UK-14304
Method: as §1

[9] = Kinetic solubility; assay type: physicochemical; details: for solubility kinetic at 24 h: PBS buffer pH 7.4, aqueous buffer, kinetic from dmso stock, PBS pH 7.4, read-out: KS PBS - pH7.4; for KS pH 7.4: kinetic solubility
Method: The precipitates on the incubation plate were removed by centrifugation (15 min, 3000 rpm, r.t.); the compound concentration in the resulting supernatant was determined by LC-MS/MS. Results were calculated as the concentration of remaining compound in solution after incubation.

[10] = molecular target: T1, H1; test: Bioprofiling 6pt Antag H1 CHO; assay type: cell-based; details: antagonist readout vs Histamine
Method: as §1

[11] = test system: PMM (Primary Mouse Macrophages); test: Cytotoxicity on primary peritoneal mouse macrophages; assay type: cell-based; details: Mus musculus, Macrophage
Summary of the method: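 Host cells were peritoneal macrophages from Swiss mice, harvested after 2 days of starch stimulation and kept in RPMI-1640 with 5% FCS at 37 °C, 5% CO2. Compounds were tested in 4-fold dilutions from 64 μM, with final DMSO below 1%.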

[12] = molecular target: T6, M2 (Homo sapiens, UniProt P08172); test: Bioprofiling 6pt Ag M2 CHO; assay type: cell-based; details: agonist readout
T6 construct: expressed in transfected cells; host or cells: CHO
T6 sequence (P08172 1-466): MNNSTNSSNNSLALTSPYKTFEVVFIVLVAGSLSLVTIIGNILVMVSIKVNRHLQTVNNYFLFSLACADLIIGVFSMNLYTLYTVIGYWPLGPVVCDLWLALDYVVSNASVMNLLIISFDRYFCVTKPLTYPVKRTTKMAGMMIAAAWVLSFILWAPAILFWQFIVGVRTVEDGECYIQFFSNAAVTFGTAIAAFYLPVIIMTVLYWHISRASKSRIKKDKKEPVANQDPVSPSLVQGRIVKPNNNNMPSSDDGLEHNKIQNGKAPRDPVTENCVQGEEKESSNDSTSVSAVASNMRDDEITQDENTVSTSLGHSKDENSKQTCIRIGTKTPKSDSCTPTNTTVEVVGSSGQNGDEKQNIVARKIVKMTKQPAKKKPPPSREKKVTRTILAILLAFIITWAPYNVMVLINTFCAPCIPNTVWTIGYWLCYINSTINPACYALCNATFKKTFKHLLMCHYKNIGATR
Method: as §1

[13] = Leishmania infantum, 120 h, intracellular amastigotes in PMM, 5 days
[14] = read-out: IC-50 PMM (Primary Mouse Macrophages)

T5 sequence (P41595 whole entry): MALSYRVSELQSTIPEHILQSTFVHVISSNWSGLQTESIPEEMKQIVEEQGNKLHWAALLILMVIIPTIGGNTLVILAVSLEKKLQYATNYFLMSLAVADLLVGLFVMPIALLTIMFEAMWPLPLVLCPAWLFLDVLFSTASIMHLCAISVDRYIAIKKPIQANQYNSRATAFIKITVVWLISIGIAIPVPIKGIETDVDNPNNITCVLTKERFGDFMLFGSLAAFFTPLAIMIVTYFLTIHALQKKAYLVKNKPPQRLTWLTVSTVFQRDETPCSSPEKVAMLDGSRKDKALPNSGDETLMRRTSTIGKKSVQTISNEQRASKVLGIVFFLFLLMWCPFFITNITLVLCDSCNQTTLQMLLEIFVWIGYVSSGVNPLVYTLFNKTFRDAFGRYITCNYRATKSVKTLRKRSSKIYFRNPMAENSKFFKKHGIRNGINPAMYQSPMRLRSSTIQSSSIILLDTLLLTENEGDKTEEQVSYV
T2 sequence (P28223 whole entry): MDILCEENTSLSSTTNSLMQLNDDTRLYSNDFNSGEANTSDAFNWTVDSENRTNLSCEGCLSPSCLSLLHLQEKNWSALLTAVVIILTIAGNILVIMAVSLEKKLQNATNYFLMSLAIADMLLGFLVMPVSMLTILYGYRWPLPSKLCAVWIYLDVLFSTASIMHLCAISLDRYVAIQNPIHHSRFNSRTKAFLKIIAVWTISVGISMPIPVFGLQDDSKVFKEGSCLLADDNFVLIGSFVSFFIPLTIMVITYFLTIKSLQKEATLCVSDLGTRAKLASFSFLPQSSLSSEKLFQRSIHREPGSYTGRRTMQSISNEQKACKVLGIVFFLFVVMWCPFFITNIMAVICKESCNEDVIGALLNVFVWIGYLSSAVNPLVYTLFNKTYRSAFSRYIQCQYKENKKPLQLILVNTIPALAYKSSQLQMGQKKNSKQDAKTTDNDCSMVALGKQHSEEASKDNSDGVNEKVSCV
T1 sequence (P35367 whole entry): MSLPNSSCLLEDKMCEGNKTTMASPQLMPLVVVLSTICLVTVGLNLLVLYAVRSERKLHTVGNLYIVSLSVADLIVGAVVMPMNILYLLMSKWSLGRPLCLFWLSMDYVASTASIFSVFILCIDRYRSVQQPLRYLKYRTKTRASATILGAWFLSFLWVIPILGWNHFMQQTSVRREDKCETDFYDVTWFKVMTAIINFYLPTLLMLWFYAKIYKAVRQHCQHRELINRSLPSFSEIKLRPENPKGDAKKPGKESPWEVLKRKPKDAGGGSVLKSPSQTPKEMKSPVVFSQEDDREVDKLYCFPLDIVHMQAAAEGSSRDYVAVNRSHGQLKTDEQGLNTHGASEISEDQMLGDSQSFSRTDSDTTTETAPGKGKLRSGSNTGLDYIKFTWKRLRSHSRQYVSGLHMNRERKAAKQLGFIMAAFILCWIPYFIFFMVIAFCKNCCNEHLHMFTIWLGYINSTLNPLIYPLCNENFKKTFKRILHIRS

| Structure (SMILES) | SI: selectivity index (CC50 / IC50) [1] | pIC50 [1, 13] | pIC50 ([1]; Leishmania infantum, S1 Data) | pEC50 [2] | pEC50 [3] | pIC50 [4] | pEC50 [5] | pIC50 [6] | pEC50 [7] | pIC50 [8] | solubility kinetic at 24 h [9] | KS PBS - pH 2 [9] | KS pH 7.4 [9] | pIC50 [10] | pIC50 [11, 14] | pIC50 ([11]; read-out: PMM IC50) | pEC50 [12] | potency compared to initial hit 1 ([1]; L. infantum IC50) | potency compared to parent compound 30 ([1]; L. infantum IC50) | pIC50 ([1]; intracellular amastigotes in PMM, 5 days) |
| --- | --- | --- | --- | --- | --- | --- | --- | --- | --- | --- | --- | --- | --- | --- | --- | --- | --- | --- | --- | --- |
| Cn1nccc1C(=O)Nc1nc2ccc(C#N)cc2n1CC(C)(C)C [Compound 29, O=C(Nc1n(CC(C)(C)C)c(c2n1)cc(C#N)cc2)c3n(C)ncc3] | 7 | 5.39 | 5.39 | < 5.00 | < 5.00 | < 5.00 | < 5.00 | < 5.00 | < 5.00 | < 5.00 | 3.11 µg/mL (≈ 9.24 µM) | 1.77 ug/mL | 9.2 μM | < 5.00 | 4.31 | 4.56 | < 5.00 |  |  |  |
| N#Cc1ccc2nc(NC(=O)c3ccnc(C(F)(F)F)c3)n(CC(F)(F)F)c2c1 [Compound 44, O=C(c1ccnc(C(F)(F)F)c1)Nc2nc(ccc(C#N)c3)c3n2CC(F)(F)F] | 5 | 6.08 |  | < 5.00 | < 5.00 | < 5.00 | < 5.00 | < 5.00 | < 5.00 | < 5.00 | 0.41 µg/mL (≈ 0.992 µM) | 0.41 ug/mL | <1.0 μM | < 5.00 |  | 5.40 | < 5.00 | 10 to 20 fold |  |  |
| Cn1nc(C(F)(F)F)cc1C(=O)Nc1nc2ccc(C#N)cc2n1CC(F)(F)F [Compound 39, O=C(c1cc(C(F)(F)F)nn1C)Nc2nc(ccc(C#N)c3)c3n2CC(F)(F)F] | 2 | 6.30 |  | < 5.00 | < 5.00 | < 5.00 | < 5.00 | < 5.00 | < 5.00 | < 5.00 | 0.42 µg/mL (≈ 1.01 µM) | 0.42 ug/mL | <1.0 μM | < 5.00 | 4.46 | 5.90 | < 5.00 | 10 to 20 fold | 4 fold | 6.28 |
| COc1ccc(C(=O)Nc2nc3ccc(C#N)cc3n2CC(F)(F)F)cn1 [Compound 43, O=C(c1ccc(OC)nc1)Nc2nc(ccc(C#N)c3)c3n2CC(F)(F)F] | 5 | 5.15 | 5.16 | < 5.00 | < 5.00 | < 5.00 | < 5.00 | < 5.00 | < 5.00 | < 5.00 | 0.38 µg/mL (≈ 1.01 µM) | 0.38 ug/mL |  | < 5.00 |  | 4.49 | < 5.00 |  |  |  |
| N#Cc1ccc2nc(NC(=O)c3ccc(C(F)(F)F)nc3)n(CC(F)(F)F)c2c1 [Compound 45, O=C(c1ccc(C(F)(F)F)nc1)Nc2nc(ccc(C#N)c3)c3n2CC(F)(F)F] | 2 | 5.37 | 5.37 | < 5.00 | < 5.00 | < 5.00 | < 5.00 | < 5.00 | < 5.00 | < 5.00 | 0.41 µg/mL (≈ 0.992 µM) | 0.41 ug/mL |  | < 5.00 |  | 5.10 | < 5.00 |  |  |  |
| Cn1nccc1C(=O)Nc1nc2ccc(C#N)cc2n1CC(F)(F)F [Compound 30, O=C(c1ccnn1C)Nc2nc(ccc(C#N)c3)c3n2CC(F)(F)F] | 14 | 5.66 | 5.65 | < 5.00 | < 5.00 | < 5.00 | < 5.00 | < 5.00 | < 5.00 | < 5.00 | 9.22 µg/mL (≈ 26.5 µM) | 10.45 ug/mL | 26 μM | < 5.00 |  | 4.49 | < 5.00 |  |  |  |
